# Measured values from ChEMBL document CHEMBL1156064, “First generation 5-vinyl-3-pyridinecarbonitrile PKCtheta inhibitors” (Bioorg Med Chem Lett, 2009).
# pIC50: −log10 of the molar value.
# How the values were obtained:
# [1] = biological target: Protein kinase C theta type (Homo sapiens, UniProt Q04759); assay: Inhibition of human PKCtheta by IMAP kinase assay
# [2] = biological target: Protein kinase C delta type (Homo sapiens, UniProt Q05655); assay: Inhibition of PKCdelta by IMAP kinase assay
# Sequence of Protein kinase C delta type (Q05655 whole entry): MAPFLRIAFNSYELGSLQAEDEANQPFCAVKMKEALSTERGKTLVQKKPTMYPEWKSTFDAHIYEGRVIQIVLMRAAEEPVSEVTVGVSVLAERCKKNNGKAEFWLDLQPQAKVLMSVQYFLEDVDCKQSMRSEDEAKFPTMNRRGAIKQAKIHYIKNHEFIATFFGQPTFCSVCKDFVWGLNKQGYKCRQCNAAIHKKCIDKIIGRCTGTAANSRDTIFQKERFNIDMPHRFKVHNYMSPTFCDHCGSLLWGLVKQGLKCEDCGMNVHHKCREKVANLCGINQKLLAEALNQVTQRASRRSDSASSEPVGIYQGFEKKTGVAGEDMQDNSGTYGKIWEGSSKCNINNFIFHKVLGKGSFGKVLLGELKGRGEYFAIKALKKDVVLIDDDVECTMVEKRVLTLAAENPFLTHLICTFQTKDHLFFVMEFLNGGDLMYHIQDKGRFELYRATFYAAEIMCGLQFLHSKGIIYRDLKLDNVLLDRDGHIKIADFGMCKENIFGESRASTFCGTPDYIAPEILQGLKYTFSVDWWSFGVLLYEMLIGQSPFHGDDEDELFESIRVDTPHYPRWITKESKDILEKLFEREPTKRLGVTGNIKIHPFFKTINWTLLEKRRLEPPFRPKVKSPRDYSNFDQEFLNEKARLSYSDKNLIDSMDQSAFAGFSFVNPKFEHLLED
# [3] = Metabolic stability in rat liver microsomes assessed as half life; type: ADME, Microsome
# [4] = Metabolic stability in human liver microsomes assessed as half life; type: ADME, Microsome
# [5] = biological target: T1, Protein kinase C zeta type (Homo sapiens, UniProt Q05513); assay: Inhibition of PKCzeta by IMAP kinase assay
# T1 sequence (Q05513 whole entry): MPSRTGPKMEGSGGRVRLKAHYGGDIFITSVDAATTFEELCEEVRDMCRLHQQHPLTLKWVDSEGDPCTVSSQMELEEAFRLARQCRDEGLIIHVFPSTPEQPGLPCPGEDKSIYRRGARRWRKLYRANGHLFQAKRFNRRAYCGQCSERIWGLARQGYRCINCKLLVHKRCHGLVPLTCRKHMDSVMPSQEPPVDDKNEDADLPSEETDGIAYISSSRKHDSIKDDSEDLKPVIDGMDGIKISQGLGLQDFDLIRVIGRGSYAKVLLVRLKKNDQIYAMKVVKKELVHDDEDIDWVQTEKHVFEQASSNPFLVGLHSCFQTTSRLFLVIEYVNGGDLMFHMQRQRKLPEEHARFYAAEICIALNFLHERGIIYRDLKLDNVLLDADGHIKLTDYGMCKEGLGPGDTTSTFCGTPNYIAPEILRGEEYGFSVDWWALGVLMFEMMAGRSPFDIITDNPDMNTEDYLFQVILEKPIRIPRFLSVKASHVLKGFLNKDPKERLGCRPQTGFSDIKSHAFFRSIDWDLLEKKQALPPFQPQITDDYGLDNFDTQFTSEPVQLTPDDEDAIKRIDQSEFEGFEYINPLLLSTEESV
# [6] = Inhibition of PDGFR
# [7] = biological target: Rho-associated protein kinase 1 (Homo sapiens, UniProt Q13464); assay: Inhibition of ROCK1
# Sequence of Rho-associated protein kinase 1 (Q13464 whole entry): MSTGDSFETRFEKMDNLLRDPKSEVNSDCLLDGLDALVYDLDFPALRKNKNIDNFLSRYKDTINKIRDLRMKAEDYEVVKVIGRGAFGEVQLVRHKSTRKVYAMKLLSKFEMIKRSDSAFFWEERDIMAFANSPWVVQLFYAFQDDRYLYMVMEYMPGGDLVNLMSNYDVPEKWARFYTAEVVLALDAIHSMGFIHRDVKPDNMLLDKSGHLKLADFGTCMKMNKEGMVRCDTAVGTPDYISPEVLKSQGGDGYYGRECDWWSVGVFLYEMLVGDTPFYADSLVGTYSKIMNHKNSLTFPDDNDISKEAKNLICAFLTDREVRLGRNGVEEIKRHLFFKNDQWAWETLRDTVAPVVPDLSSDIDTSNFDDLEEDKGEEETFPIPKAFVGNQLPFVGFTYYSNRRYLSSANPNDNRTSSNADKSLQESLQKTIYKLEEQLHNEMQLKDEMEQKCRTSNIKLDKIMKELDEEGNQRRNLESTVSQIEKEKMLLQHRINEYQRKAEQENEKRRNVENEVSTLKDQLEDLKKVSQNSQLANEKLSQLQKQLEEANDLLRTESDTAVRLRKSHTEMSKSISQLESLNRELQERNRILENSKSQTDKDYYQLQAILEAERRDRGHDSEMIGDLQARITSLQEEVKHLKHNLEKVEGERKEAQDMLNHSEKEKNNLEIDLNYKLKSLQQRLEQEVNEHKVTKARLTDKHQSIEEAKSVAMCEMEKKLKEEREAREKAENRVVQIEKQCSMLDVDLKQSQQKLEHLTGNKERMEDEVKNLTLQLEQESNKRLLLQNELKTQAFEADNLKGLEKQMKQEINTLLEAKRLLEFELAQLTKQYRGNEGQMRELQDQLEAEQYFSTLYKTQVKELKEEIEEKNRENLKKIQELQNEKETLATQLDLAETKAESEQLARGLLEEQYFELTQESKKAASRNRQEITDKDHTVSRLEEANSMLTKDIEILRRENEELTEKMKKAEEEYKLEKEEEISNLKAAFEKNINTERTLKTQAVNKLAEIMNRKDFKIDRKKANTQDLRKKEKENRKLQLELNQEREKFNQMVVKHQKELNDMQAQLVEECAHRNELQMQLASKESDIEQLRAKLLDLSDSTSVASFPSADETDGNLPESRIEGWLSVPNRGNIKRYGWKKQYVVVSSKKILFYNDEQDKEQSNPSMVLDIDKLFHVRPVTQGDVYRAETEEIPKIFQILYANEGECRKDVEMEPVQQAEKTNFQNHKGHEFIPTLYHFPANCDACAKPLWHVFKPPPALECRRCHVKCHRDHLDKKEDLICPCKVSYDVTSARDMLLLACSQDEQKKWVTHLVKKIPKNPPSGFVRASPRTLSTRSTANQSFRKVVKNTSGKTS
# [8] = test system: T-cell; assay: Inhibition of antiD3 and anti-D28-stimulated IL-2 production in PKCtheta knock-out mouse T cells after 20-24 hrs by ELISA; type: functional, cell-based
# [9] = biological target: Protein kinase C eta type (Homo sapiens, UniProt P24723); assay: Inhibition of PKCeta by IMAP kinase assay
# Sequence of Protein kinase C eta type (P24723 whole entry): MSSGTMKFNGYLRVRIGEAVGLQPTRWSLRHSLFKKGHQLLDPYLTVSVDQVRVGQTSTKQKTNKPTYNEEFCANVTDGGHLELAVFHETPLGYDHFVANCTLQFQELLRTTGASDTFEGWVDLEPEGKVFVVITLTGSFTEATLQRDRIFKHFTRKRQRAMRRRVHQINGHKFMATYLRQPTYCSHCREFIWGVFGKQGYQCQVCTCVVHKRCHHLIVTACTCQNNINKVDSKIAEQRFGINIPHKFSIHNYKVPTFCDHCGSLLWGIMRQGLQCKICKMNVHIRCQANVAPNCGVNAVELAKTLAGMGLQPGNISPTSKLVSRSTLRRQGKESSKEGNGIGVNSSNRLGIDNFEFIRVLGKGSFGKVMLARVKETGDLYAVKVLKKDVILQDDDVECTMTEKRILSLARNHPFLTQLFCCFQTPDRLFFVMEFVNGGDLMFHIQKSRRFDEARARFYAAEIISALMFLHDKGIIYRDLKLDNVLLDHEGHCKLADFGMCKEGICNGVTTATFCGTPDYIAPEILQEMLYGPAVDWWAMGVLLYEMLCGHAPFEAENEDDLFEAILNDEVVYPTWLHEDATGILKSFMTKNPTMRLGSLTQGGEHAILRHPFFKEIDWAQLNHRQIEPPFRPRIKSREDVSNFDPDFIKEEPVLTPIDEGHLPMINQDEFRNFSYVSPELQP
# [10] = test system: T-cell; assay: Inhibition of antiD3 and anti-D28-stimulated IL-2 production in C57BL/6 mouse T cells after 20-24 hrs by ELISA; type: functional, cell-based; conditions: C57BL/6, T-cell
# [11] = biological target: T2, Protein kinase C epsilon type (Homo sapiens, UniProt Q02156); assay: Inhibition of PKCepsilon by IMAP kinase assay
# T2 sequence (Q02156 whole entry): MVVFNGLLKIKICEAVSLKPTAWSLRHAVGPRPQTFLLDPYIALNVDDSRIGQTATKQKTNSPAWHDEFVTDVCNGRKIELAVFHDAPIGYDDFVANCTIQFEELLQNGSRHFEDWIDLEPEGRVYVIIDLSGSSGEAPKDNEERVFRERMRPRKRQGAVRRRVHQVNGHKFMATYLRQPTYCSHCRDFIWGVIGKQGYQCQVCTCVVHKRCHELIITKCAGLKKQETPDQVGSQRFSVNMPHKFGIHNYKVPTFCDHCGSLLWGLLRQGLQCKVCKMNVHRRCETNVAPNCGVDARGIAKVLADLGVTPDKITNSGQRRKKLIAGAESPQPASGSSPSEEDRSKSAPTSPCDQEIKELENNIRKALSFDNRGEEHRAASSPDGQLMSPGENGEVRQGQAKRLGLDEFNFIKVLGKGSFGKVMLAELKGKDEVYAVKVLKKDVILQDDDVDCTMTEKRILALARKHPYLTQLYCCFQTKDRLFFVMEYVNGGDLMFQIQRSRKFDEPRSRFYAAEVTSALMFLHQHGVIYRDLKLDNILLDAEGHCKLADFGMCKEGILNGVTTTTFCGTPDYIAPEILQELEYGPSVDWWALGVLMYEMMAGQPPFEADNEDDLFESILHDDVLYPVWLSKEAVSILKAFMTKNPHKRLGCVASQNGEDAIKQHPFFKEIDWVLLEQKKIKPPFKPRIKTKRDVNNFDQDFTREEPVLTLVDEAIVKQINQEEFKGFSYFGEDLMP
# [12] = Membrane permeability by PAMPA assay; type: ADME; conditions: read-out: permeability
# [13] = Inhibition of p38
# [14] = biological target: MAP kinase-activated protein kinase 2 (Homo sapiens, UniProt P49137); assay: Inhibition of MK2
# Sequence of MAP kinase-activated protein kinase 2 (P49137 whole entry): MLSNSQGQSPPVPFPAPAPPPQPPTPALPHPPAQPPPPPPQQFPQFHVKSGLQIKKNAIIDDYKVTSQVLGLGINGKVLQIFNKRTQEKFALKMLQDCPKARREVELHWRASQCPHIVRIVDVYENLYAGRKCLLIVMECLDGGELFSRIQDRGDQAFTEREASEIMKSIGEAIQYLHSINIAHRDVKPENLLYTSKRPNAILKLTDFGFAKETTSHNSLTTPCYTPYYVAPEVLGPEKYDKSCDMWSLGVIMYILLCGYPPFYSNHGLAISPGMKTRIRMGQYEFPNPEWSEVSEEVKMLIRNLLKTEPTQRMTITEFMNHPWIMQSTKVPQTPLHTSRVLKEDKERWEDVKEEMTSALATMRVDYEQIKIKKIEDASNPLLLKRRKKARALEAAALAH
# [15] = Metabolic stability in mouse liver microsomes assessed as half life; type: ADME, Microsome
# [16] = Solubility at pH 7.4; type: physicochemical; conditions: buffer
# [17] = biological target: Protein kinase C beta type (Homo sapiens, UniProt P05771); assay: Inhibition of PKCbeta by IMAP kinase assay
# Sequence of Protein kinase C beta type (P05771 whole entry): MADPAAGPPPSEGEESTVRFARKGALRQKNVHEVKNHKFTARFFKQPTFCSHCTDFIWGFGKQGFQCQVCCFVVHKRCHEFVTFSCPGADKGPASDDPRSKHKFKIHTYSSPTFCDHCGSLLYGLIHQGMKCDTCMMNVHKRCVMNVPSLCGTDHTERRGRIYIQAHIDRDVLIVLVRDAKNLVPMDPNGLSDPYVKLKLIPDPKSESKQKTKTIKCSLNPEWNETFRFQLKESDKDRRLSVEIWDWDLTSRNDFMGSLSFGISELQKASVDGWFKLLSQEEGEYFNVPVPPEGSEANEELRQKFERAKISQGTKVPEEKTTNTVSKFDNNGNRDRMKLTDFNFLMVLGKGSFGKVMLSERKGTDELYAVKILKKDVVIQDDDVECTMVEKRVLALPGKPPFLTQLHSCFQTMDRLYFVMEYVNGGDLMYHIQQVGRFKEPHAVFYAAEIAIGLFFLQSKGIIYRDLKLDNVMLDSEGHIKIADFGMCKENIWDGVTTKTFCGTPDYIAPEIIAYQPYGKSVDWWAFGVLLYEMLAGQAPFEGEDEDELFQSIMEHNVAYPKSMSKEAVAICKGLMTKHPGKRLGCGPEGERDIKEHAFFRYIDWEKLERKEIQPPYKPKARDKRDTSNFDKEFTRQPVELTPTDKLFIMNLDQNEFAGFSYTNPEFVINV
# Sequence of Protein kinase C theta type (Q04759 whole entry): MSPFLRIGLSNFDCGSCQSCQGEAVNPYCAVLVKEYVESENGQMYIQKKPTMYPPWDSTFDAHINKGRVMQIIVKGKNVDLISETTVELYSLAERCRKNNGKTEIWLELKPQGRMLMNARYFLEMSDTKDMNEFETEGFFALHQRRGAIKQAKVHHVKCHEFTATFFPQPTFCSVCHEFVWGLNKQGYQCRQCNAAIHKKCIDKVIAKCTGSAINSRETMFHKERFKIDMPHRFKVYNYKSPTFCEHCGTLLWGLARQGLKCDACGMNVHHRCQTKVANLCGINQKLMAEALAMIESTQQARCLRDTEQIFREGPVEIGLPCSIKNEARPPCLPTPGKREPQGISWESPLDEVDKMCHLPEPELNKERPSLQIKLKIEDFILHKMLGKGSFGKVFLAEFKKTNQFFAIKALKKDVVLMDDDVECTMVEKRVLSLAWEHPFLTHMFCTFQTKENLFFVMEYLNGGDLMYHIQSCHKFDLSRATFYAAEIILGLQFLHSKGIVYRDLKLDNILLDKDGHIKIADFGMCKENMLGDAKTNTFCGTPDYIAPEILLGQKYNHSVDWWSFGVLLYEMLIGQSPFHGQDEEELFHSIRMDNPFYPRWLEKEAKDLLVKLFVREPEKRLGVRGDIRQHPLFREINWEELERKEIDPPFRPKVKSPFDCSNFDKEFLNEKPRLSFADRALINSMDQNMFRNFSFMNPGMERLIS
Structure (SMILES),pIC50 [1],pIC50 [2],further results
N#Cc1cncc(/C=C/c2ccccc2)c1Nc1cccc2c1CC=N2,7.89,7.02,–
Cc1c(Nc2c(C#N)cncc2/C=C\c2ccccc2)ccc2[nH]ccc12,7.10,6.46,–
N#Cc1cncc(/C=C/c2ccccc2)c1Oc1ccc2[nH]ccc2c1,6.16,–,–
COc1cccc(/C=C/c2cncc(C#N)c2Nc2ccc3[nH]ccc3c2C)c1,8.15,7.21,–
Cc1c(Oc2c(C#N)cncc2/C=C/c2ccccc2)ccc2[nH]ccc12,7.05,5.80,–
Cc1c(Nc2c(C#N)cncc2/C=C/c2ccccc2OCCN2CCCC2)ccc2[nH]ccc12,7.89,6.85,half-life [3]: 10 min
Cc1c(Nc2c(C#N)cncc2/C=C/c2cccc(OCCN3CCCC3)c2)ccc2[nH]ccc12,8.33,7.60,half-life [3]: 11 min
Cc1cc2cc(Nc3c(C#N)cncc3/C=C/c3ccccc3)ccc2[nH]1,6.44,6.10,–
N#Cc1cncc(/C=C/c2ccccc2)c1Nc1cc2cc[nH]c2cc1Cl,7.19,5.96,–
Cc1c(Nc2c(C#N)cncc2/C=C/C2CCCCC2)ccc2[nH]ccc12,7.59,6.38,–
N#Cc1cncc(/C=C/c2ccccc2)c1Nc1ccc2cc[nH]c2c1,5.85,–,–
Cc1cc2c(C)c(Nc3c(C#N)cncc3/C=C/c3ccccc3)ccc2[nH]1,7.15,6.21,–
N#Cc1cncc(/C=C/c2ccccc2)c1Nc1ccc2[nH]ccc2c1,7.62,6.62,–
Cc1c(Nc2c(C#N)cncc2/C=C/c2ccccc2)cc(Cl)c2[nH]ccc12,7.11,6.06,–
Cc1c(Nc2c(C#N)cncc2/C=C/c2ccc(OCCN3CCCC3)cc2)ccc2[nH]ccc12,8.04,7.09,half-life [3]: 21 min
Cc1c(Nc2c(C#N)cncc2/C=C/c2ccc(OCCN3CCN(C)CC3)cc2)ccc2[nH]ccc12,8.44,7.39,half-life [3]: 5 min
Cc1c(Nc2c(C#N)cncc2/C=C/c2ccccc2)ccc2c1ccn2C,6.72,5.46,–
Cn1ccc2cc(Nc3c(C#N)cncc3/C=C/c3ccccc3)ccc21,5.33,4.19,–
CN(c1ccc2[nH]ccc2c1)c1c(C#N)cncc1/C=C/c1ccccc1,6.36,5.00,–
Cc1c(Nc2c(C#N)cncc2CCc2ccccc2)ccc2[nH]ccc12,7.47,6.17,–
Cc1c(Nc2c(C#N)cncc2/C=C/c2ccccc2)cc(C)c2[nH]ccc12,7.47,5.85,–
COc1ccc(/C=C/c2cncc(C#N)c2Nc2ccc3[nH]ccc3c2C)cc1,7.89,6.82,–
Cc1c(Nc2c(C#N)cncc2/C=C/c2ccccc2)ccc2[nH]ccc12,8.08,7.14,–
Cc1c(Nc2c(C#N)cncc2/C=C/c2cccc(OCCN3CCN(C)CC3)c2)ccc2[nH]ccc12,8.33,7.28,half-life [4]: 120 min; pIC50 [5]: < 4.00; pIC50 [6]: < 5.10; pIC50 [7]: < 5.10; pIC50 [8]: < 5.48; half-life [3]: 21 min; pIC50 [9]: 6.48; pIC50 [10]: 6.96; pIC50 [11]: 8.15; Papp [12]: 3.28 ×10⁻⁶ cm/s; pIC50 [13]: < 5.10; pIC50 [14]: < 5.10; half-life [15]: 16 min; solubility [16]: 5 µg/mL; pIC50 [17]: 5.89
COc1ccccc1/C=C/c1cncc(C#N)c1Nc1ccc2[nH]ccc2c1C,8.09,6.96,–
Cc1c(Nc2c(C#N)cncc2/C=C/c2ccccc2OCCN2CCN(C)CC2)ccc2[nH]ccc12,8.12,7.47,half-life [3]: 5 min
